Measured values: paper PMC10537087, “Evaluating Known Zika Virus NS2B-NS3 Protease Inhibitor Scaffolds via In Silico Screening and Biochemical Assays” (Pharmaceuticals, 2023)
Where two headings read alike, the source gives them in different places.

What was measured:
ZIKV NS2B-NS3pro [1] = molecular target: T1, ZIKV NS2B-NS3pro (Zika virus, UniProt A0A024B7W1, C1582S/C1645S/R1467A/R1531G); assay: ZIKV NS2B-NS3pro inhibitory assay with fluorogenic substrate Bz-Nle-Lys-Lys-Arg-AMC; type: biochemical; conditions: for % ZIKV NS2B/NS3pro Inhibition [Enzyme] = 0.2 nM / % ZIKV NS2B/NS3pro Inhibition [Enzyme] = 2 nM: CHAPS 1 mM; for % ZIKV NS2B/NS3pro Inhibition (100 µM) 0.001% Triton: 0.001% Triton X-100, no Tween-20; for % ZIKV NS2B/NS3pro Inhibition (100 µM) 0.01% Triton: 0.01% Triton X-100, no Tween-20; for % ZIKV NS2B/NS3pro Inhibition (100 µM) BSA: 10 min pre-incubation with BSA 1 mg/mL before enzyme; for % ZIKV NS2B/NS3pro Inhibition (100 µM) Without Preincubation: no preincubation; for Hill Slope Replica 1 / Hill Slope Replica 2: from dose-response curve
cruzain = cruzain (Trypanosoma cruzi, UniProt P25779); assay: Cruzain counter-screening enzyme assay (Z-Phe-Arg-AMC); type: biochemical; conditions: 10 min preincubation, pH 5.5
cruzain, sequence (P25779 123-467): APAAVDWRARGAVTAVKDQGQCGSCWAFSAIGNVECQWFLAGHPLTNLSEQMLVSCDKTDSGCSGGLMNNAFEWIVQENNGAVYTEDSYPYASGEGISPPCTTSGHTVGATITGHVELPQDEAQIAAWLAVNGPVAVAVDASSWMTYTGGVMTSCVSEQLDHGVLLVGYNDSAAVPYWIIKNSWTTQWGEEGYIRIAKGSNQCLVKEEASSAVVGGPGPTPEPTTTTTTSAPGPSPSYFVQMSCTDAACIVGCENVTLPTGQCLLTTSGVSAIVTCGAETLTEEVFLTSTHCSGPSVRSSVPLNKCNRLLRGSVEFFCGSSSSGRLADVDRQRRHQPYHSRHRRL
Procedure: Cruzain activity was measured by monitoring the fluorescence signal obtained by cleavage of the fluorogenic substrate Z-Phe-Arg-AMC, following a well-established protocol. The fluorescence intensity (excitation λ: 340 nm; emission λ: 440 nm) was monitored for at least 5 min. All assays were performed in sodium acetate 0.1 M at pH 5.5 and β-mercaptoethanol 10 mM. The final protein concentration was 0.1 nM, and the substrate concentration was 2.5 µM. Each condition was tested in triplicate and two independent assays (n = 6 data points), with preincubation of the enzyme for 10 min at 25 °C. Assays were performed at compound concentrations near the IC50 value against ZIKV NS2B-NS3pro.

[2] = tested on: Vero (ATCC CCL-81) cell line; assay: Cytotoxicity MTT assay (CC50); conditions: Vero cells
Procedure: (§1) The Vero (ATCC® CCL-81™) cell line was used for the cytotoxicity assays and antiviral activity evaluation against ZIKV. Cells were cultured in Eagle’s minimum essential media (MEM) (Cultilab, Campinas, Brazil). The media was supplemented with 5% fetal bovine serum (FBS) (Cultilab, Brazil), in addition to 100 IU/mL penicillin (Cellofarm, Rio De Janeiro, Brazil), 100 μg/mL streptomycin (Merck, Darmstadt, Germany), and 0.25 μg/mL amphotericin B (Cultilab, Brazil).
(§2) Cells were seeded in 96-well microplates (4.0 × 10^4 cells per well) and incubated at 37 °C and 5% CO2 for 24 h. Then, 200 µL of MEM with 1% FBS containing a serial dilution of the compounds (100 to 12.5 µM) was added. As vehicle control, a serial dilution of DMSO was used. After 72 h of incubation under the same conditions, 100 μL of 3-(4,5-dimethylthiazol-2-yl)-2,5-diphenyltetrazolium bromide (MTT; ThermoFischer Scientific, Waltham, MA, USA) [76] diluted in MEM (0.5 mg/mL) was added to each well and incubated for 3 h. The media was removed, and 100 μL of DMSO was added to each well to solubilize formazan crystals and shaken for 20 min. The absorbance was read at 570 nm using a spectrophotometer (VersaMax, Molecular Devices, San Jose, CA, USA). The percentages of inhibition of cell viability were calculated as the ratio between the absorbance of the compound-treated cells and cells with only the vehicle. […] Linear regression (LR) was used for the analysis, considering results with r^2 > 0.9. All conditions were tested in triplicate and one independent assay (n = 3 data points).

[3] = Cytotoxicity MTT assay (CC50); conditions: African green monkey, Vero (ATCC CCL-81) cells
Procedure: as §1, §2

[4] = Solubility in cruzain assay buffer; type: physicochemical; conditions: sodium acetate 0.1 M pH 5.5, β-mercaptoethanol 10 mM
ZIKV NS2B-NS3pro [5] = molecular target: T1, ZIKV NS2B-NS3pro; conditions: cited from earlier work; for cause of inhibition after resynthesis: parallel study, ref [54]; for mode of inhibition: ref [33]
[6] = tested on: Vero (ATCC CCL-81) cell line; design: method as in Serafim et al. [64]; conditions: comparison control; ref Serafim et al. [64]; cited from earlier work
ZIKV (PE243) = tested on: ZIKV (PE243); design: method as in Serafim et al. [64]; conditions: comparison control, ref Serafim et al. [64]; cited from earlier work
[7] = compound 25 µM (close to IC50), enzyme 0.2 nM
[8] = compound 100 µM, 10 min preincubation
[9] = compound 100 µM, 10 min preincubation with enzyme, 0.005% Tween-20, enzyme 0.2 nM
[10] = compound 100 µM, 0.005% Tween-20
[11] = compound 10 µM (close to IC50), enzyme 0.2 nM
[12] = 0.005% Tween-20, enzyme 0.2 nM, substrate 44 µM, read-out: ZIKV NS2B/NS3pro IC50
[13] = one value per independent assay (two curves per compound), read-out: IC50 of the individual curves for NS2B-NS3pro inhibitors (Figure 3)

| SMILES | % ZIKV NS2B/NS3pro Inhibition [Enzyme] = 0.2 nM (ZIKV NS2B-NS3pro [1]; [7]) | % ZIKV NS2B/NS3pro Inhibition [Enzyme] = 2 nM (ZIKV NS2B-NS3pro [1]; compound 25 µM (close to IC50)) | % ZIKV NS2B/NS3pro Inhibition (100 µM) 0.001% Triton (ZIKV NS2B-NS3pro [1]; [8]) | % ZIKV NS2B/NS3pro Inhibition (100 µM) 0.01% Triton (ZIKV NS2B-NS3pro [1]; [8]) | % ZIKV NS2B/NS3pro Inhibition (100 µM) BSA (ZIKV NS2B-NS3pro [1]; compound 100 µM) | % ZIKV NS2B/NS3pro Inhibition (100 µM) With Preincubation (ZIKV NS2B-NS3pro [1]; [9]) | % ZIKV NS2B/NS3pro Inhibition (100 µM) Without Preincubation (ZIKV NS2B-NS3pro [1]; [10]) | Hill Slope Replica 1 (ZIKV NS2B-NS3pro [1]) | Hill Slope Replica 2 (ZIKV NS2B-NS3pro [1]) | Cell viability as percentage of cell control (mean absorbance / CELL) ([2]; compound 12.5 µM) | Cell viability as percentage of cell control (mean absorbance / CELL) ([2]; compound 50 µM) | Cell viability as percentage of cell control (mean absorbance / CELL) ([2]; compound 100 µM) | CC50 at 72 h [3] | Cell viability as percentage of cell control (mean absorbance / CELL) ([2]; compound 25 µM) | other results |
| --- | --- | --- | --- | --- | --- | --- | --- | --- | --- | --- | --- | --- | --- | --- | --- |
| O=C(Nc1nc2cccnc2[nH]1)c1ccccc1NS(=O)(=O)c1ccc(Cl)cc1 [Compound 1] | 45 ± 0.1% | 26 ± 7% | 93 ± 8% | 47 ± 34% | 69 ± 6% | 100 ± 0% | 100 ± 0% | 3.046 | 1.585 | 61.7079 | 24.3591 | 20.1848 | 22 ± 0.79 µM | – | inhibition at 25 µM (cruzain; compound 25 µM): 97 ± 7% |
| O=C(Nc1nc2cccnc2[nH]1)c1ccccc1NS(=O)(=O)c1ccc(F)cc1 [Compound 2] | 30 ± 0.1% | 28 ± 7% | 94 ± 7% | 30 ± 19% | 32 ± 2% | 100 ± 0% | 100 ± 0% | 0.731 | 4.089 | 77.4987 | 30.8677 | 25.9519 | 32.5 ± 1.95 µM | 53.4692 | inhibition at 25 µM (cruzain; compound 25 µM): 42 ± 11% |
| O=C(Nc1nc2cnccc2[nH]1)c1ccccc1NS(=O)(=O)c1ccc(F)cc1 [Compound 3] | – | – | – | – | – | – | 56 ± 11% | – | – | 86.7535 | 72.6654 | 56.6548 | 120 ± 3.68 µM | 77.5537 | – |
| O=C(Nc1nc2cnccc2[nH]1)c1ccccc1NS(=O)(=O)c1ccc(Cl)cc1 [Compound 4] | 44 ± 0.2% | 29 ± 8% | 93 ± 8% | 25 ± 15% | 45 ± 4% | 100 ± 0% | 100 ± 0% | 0.8047 | 0.5347 | 84.584 | 49.8167 | 25.183 | 57.1 ± 1.86 µM | 66.5687 | % Cruzain Inhibition (cruzain; compound 25 µM): no inhibitory activity; inhibition at 25 µM (cruzain; compound 25 µM): -12 ± 9.1% |
| O=C(Nc1nc2cccc(Cl)c2[nH]1)c1ccccc1NS(=O)(=O)c1ccc(F)cc1 [Compound 5] | – | – | 93 ± 3% | 6 ± 8% | 94 ± 8% | 100 ± 0% | 100 ± 0% | 3.333 | 1.731 | 44.8735 | 14.9121 | 15.1318 | < 12.5 µM | 19.4433 | % ZIKV NS2B/NS3pro Inhibition [Enzyme] = 0.2 nM (ZIKV NS2B-NS3pro [1]; [11]): 62 ± 0.1%; % ZIKV NS2B/NS3pro Inhibition [Enzyme] = 2 nM (ZIKV NS2B-NS3pro [1]; compound 10 µM (close to IC50)): 23 ± 8%; inhibition at 10 µM (cruzain; compound 10 µM): 69 ± 24% |
| O=C(Nc1nc2ccccc2[nH]1)c1ccccc1NS(=O)(=O)c1ccc(Cl)cc1 [Compound 6] | 99 ± 0.4% | 66 ± 21% | 89 ± 6% | 7 ± 9% | 55 ± 20% | 100 ± 0% | 99 ± 2% | 6.697 | 4.362 | 63.7676 | 41.6329 | 48.6633 | 38.4 ± 2.18 µM | 61.7079 | solubility in the cruzain assay buffer [4]: insoluble |
| Cc1ccc(S(=O)(=O)Nc2ccccc2C(=O)Nc2nc3ccccc3[nH]2)cc1 [Compound 7] | 87 ± 0.04% | 27 ± 6% | 88 ± 5% | 12 ± 17% | 89 ± 7% | 100 ± 0% | 90 ± 8% | 2.014 | 1.056 | 64.4267 | 38.9416 | 40.3696 | 32.8 ± 1.55 µM | 53.8262 | – |
| COc1cccc2sc(NC(=O)c3ccccc3CS(=O)(=O)c3ccccc3)nc12 [Compound 8] | – | – | – | – | – | – | – | – | – | 57.338 | 21.2269 | 17.0602 | 23.6 ± 1 µM | 54.3981 | % ZIKV NS2B/NS3pro Inhibition (100 µM) Without Preincubation (ZIKV NS2B-NS3pro [1]; compound at 10 µM (footnote a), 0.005% Tween-20): 15 ± 11%; % ZIKV NS2B/NS3pro Inhibition (100 µM) With Preincubation (ZIKV NS2B-NS3pro [1]; compound at 10 µM (footnote a, solubility limit), 10 min preincubation, 0.005% Tween-20, enzyme 0.2 nM): 8 ± 8% |
| COc1cccc2nc(C(=O)c3ccccc3NS(=O)(=O)c3ccc(F)c(C)c3)[nH]c12 [Compound 12] | – | – | 90 ± 5% | 5 ± 7% | 87 ± 18% | 100 ± 0% | 91 ± 9% | 1.517 | 1.742 | 28.1944 | 9.861 | 10 | < 12.5 µM | 14.2593 | IC50 (ZIKV NS2B-NS3pro [1]; [12]): 5 ± 1 µM; % ZIKV NS2B/NS3pro Inhibition [Enzyme] = 0.2 nM (ZIKV NS2B-NS3pro [1]; [11]): 94 ± 0.06%; % ZIKV NS2B/NS3pro Inhibition [Enzyme] = 2 nM (ZIKV NS2B-NS3pro [1]; compound 10 µM (close to IC50)): 30 ± 10%; IC50 (ZIKV NS2B-NS3pro [1]; [13]): 6 µM |
| Cc1cc(C(=O)c2ccccc2NS(=O)(=O)c2ccc(F)cc2)nn1-c1ccccc1 [Compound 13] | 43 ± 0.1% | 26 ± 10% | 100 ± 0% | 45 ± 9% | 57 ± 15% | 95 ± 2% | 100 ± 1% | 5.057 | 5.334 | 41.6898 | 21.6435 | 12.8704 | < 12.5 µM | 25.5093 | IC50 (ZIKV NS2B-NS3pro [1]; [12]): 28 ± 1 µM; IC50 (ZIKV NS2B-NS3pro [1]; [13]): 29 µM; solubility in the cruzain assay buffer [4]: insoluble |
| COc1ccc(S(=O)(=O)Nc2ccccc2C(=O)Nc2nc3ccccc3s2)cc1 [LEE-2] | – | – | – | – | – | – | – | – | – | – | – | – | – | – | cause of inhibition after resynthesis (ZIKV NS2B-NS3pro [5]): due to colloidal aggregation; mode of inhibition (ZIKV NS2B-NS3pro [5]): competitive inhibitors |
| COc1ccc(Cl)c2sc(NC(=O)c3ccccc3NS(=O)(=O)c3ccc(C)cc3)nc12 [LEE-3] | – | – | – | – | – | – | – | – | – | – | – | – | – | – | cause of inhibition after resynthesis (ZIKV NS2B-NS3pro [5]): due to colloidal aggregation; mode of inhibition (ZIKV NS2B-NS3pro [5]): competitive inhibitors |
| NC(=O)c1ncn([C@@H]2O[C@H](CO)[C@@H](O)[C@H]2O)n1 [Ribavirin] | – | – | – | – | – | – | – | – | – | – | – | – | – | – | CC50 [6]: > 100 µM; EC50 (ZIKV (PE243)): 4.1 ± 0.35 µM |
